Test systems include NCI-H226 lung; SK-MEL-2 melanoma; EKVX NSCLC; HCT-15 colon; SW-620 colon; SN12C renal; SF-295 CNS; HOP-62 NSCLC; RXF 393 renal; DU-145 prostate.
Holding throughout (assay): growth of human tumour cells (NCI), 48 h

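All cell lines were grown in 96-well plates and treated with compound for 48 hours. GI50: concentration for 50% inhibition of growth. TGI marks complete inhibition of growth.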

In the case of `CN(C)c1ccc(C(=C2C=CC(=[N+](C)C)C=C2)c2ccccc2Cl)cc1`, the GI50 in the assay on NCI-H226 lung is 430 nM; in the assay with SK-MEL-2 melanoma, 339 nM; in the assay with EKVX NSCLC it was 162 nM; in the assay on HCT-15 colon it was 717 nM; with SW-620 colon, 288 nM; with SN12C renal, 239 nM. Moreover, the GI50 was 89.4 nM in the assay with SF-295 CNS, 292 nM with HOP-62 NSCLC, 405 nM in the assay on RXF 393 renal and 374 nM in the assay with DU-145 prostate. In addition, the TGI was 2000 nM in the assay with NCI-H226 lung; 899 nM with SK-MEL-2 melanoma; 1450 nM in the assay with EKVX NSCLC; 4960 nM with HCT-15 colon; 1190 nM in the assay with SW-620 colon; 1670 nM in the assay on SN12C renal. The TGI with SF-295 CNS is 401 nM; in the assay with HOP-62 NSCLC, 949 nM; with RXF 393 renal it was 1610 nM; in the assay on DU-145 prostate it was 1310 nM.

These data come from PubChem BioAssay (NCI).
